Reference: patent US10414811B2, “Protease-resistant lipidated GLP-1 analogs” (MEDIMMUNE LIMITED, priority 2015, dated 2019)
Read-outs that look alike come from different tables or passages of the source. Numbered stars: 1 amine (or outer) side, 2 acyl side, 3 side chain; on linkers, the order of the positions; unused ones are H or OH. Square brackets hold non-standard residues; d marks the D form. Side chains are listed from the residue outwards. Peptide text beside a SMILES is read from it. * marks the point of attachment. C18 diacid = O=C(O)CCCCCCCCCCCCCCCCC(=O)*; γGlu = O=C(O)[C@H](CCC(=O)[*:2])N[*:1]; αMeF = C[C@](N)(Cc1ccccc1)C(=O)O; αMeK = C[C@](N)(CCCCN)C(=O)O; Lauroyl = CCCCCCCCCCCC(=O)*; αMeS = C[C@](N)(CO)C(=O)O; AEEA = NCCOCCOCC(=O)O; Aib = CC(C)(N)C(=O)O

Tests used:
Format in all cases: cell-based
[1] = molecular target: T1, human GLP-1 receptor (GLP-1R) (Homo sapiens, UniProt P43220); assay: cAMP assay, human GLP-1R cells; details: cAMP assay, first determination (n1); read-out: Primary assay EC50 GLP-1R n1
T1 construct: expressed in transfected cells
T1 sequence (P43220 24-463): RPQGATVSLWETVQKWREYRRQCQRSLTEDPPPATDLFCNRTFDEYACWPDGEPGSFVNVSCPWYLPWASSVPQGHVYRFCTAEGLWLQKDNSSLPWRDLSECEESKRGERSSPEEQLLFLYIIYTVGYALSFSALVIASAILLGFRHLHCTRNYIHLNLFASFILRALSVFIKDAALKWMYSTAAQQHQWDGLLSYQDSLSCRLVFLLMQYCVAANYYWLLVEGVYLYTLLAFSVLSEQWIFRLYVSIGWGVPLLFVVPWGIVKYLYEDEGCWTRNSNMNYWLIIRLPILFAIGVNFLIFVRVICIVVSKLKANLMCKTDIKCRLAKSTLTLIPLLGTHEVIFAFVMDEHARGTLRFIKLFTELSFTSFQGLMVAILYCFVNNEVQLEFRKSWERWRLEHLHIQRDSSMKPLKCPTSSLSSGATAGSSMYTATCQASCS
Outline: (§1)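 Peptide-stimulated cAMP measured by two-step HTRF after a 30 min room-temperature incubation with receptor-expressing cells (hGLP-1R, hGIPR at 1×10^5 cells/ml; hGCGR at 2×10^5 cells/ml). Duplicate dilutions; EC50 from 4-parameter logistic fit of % Delta F.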

[2] = molecular target: T2, human glucagon receptor (GCGR) (Homo sapiens, UniProt P47871); assay: cAMP assay, human GCGR cells
T2 construct: expressed in transfected cells
T2 sequence (P47871 26-477): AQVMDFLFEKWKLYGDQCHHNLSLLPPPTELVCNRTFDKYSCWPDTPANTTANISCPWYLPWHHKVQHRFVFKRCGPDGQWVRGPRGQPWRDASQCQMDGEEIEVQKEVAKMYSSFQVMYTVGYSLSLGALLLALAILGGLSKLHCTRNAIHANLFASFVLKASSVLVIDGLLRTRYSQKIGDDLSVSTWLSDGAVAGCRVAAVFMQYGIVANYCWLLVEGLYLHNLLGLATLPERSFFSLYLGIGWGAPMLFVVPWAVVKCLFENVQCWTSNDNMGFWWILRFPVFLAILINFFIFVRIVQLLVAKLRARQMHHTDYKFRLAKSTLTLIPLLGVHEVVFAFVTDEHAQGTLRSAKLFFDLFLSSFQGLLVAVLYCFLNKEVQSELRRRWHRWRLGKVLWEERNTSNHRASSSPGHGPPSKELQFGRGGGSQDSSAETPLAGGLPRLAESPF
Outline: as §1

[3] = molecular target: T3, human glucose-dependent insulinotropic peptide receptor (GIPR) (Homo sapiens, UniProt P48546); assay: cAMP assay, human GIPR cells
T3 construct: expressed in transfected cells
T3 sequence (P48546 22-466): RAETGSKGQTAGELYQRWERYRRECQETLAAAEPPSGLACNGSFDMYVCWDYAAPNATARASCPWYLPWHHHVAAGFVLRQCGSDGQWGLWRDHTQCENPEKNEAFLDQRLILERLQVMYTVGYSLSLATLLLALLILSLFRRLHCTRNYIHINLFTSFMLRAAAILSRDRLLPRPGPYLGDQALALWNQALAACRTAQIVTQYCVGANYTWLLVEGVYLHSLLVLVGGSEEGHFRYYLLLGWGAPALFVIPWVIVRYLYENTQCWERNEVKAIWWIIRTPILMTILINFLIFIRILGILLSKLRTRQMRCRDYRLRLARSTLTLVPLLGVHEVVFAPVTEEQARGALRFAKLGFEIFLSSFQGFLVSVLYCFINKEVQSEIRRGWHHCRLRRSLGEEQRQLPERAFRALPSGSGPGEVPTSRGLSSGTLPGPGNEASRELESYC
Outline: as §1

GLP-1R (INS1e assay) = molecular target: T4, GLP-1R (INS1e assay) (Rattus norvegicus, UniProt P32301); assay: INS1e assay, cAMP activity at GLP-1R
T4 construct: endogenous in cells; host or cells: INS-1E cells
T4 sequence (P32301 22-463): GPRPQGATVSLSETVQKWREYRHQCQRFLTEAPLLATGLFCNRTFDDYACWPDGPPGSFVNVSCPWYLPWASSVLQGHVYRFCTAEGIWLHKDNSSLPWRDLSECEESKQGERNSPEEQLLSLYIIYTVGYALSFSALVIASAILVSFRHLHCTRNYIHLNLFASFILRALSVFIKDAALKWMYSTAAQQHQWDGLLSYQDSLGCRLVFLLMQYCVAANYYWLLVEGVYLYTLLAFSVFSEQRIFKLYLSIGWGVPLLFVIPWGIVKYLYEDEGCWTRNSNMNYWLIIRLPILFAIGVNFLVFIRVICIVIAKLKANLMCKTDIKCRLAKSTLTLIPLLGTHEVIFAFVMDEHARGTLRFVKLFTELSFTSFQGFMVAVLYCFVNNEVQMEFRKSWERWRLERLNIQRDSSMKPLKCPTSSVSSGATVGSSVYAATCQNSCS
Outline: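 cAMP was quantified by two-step HTRF, using anti-cAMP cryptate donor and cAMP-d2 acceptor, each diluted 1/20 in conjugate and lysis buffer. EC50 values of the synthetic peptides were derived from the cAMP readout.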

[4] = cAMP assay, first determination (n1), read-out: Primary assay EC50 Gluc-R (n1)
[5] = cAMP assay, second determination (n2), read-out: Primary assay EC50 Gluc-R (n2)
[6] = cAMP assay, first determination (n1), read-out: Primary assay EC50 GIP-R (n1)
[7] = cAMP assay, second determination (n2), read-out: Primary assay EC50 GIP-R (n2)
[8] = mono-lipidated peptides, mean of n1 and n2, read-out: INS1e assay EC50 Mean pM GLP-1R
[9] = mono-lipidated peptides, replicate n1, read-out: INS1e assay EC50 GLP-1R n1
[10] = mono-lipidated peptides, replicate n2, read-out: INS1e assay EC50 GLP-1R n2

| Compound | EC50 [1] [nM] | EC50 [2, 4] [nM] | EC50 [2, 5] [nM] | EC50 [3, 6] [nM] | EC50 [3, 7] [nM] | EC50 (GLP-1R (INS1e assay); [8]) [pM] | EC50 (GLP-1R (INS1e assay); [9]) [pM] | EC50 (GLP-1R (INS1e assay); [10]) [pM] | EC50 ([2]; tris-lipidated peptides, second replicate, read-out: Primary assay EC50 Gluc-R (n2)) [nM] | EC50 ([3]; tris-lipidated peptides, first replicate, read-out: Primary assay EC50 GIP-R (n1)) [nM] | EC50 (GLP-1R (INS1e assay); tris-lipidated peptides, mean of n1 and n2, read-out: INS1e assay EC50 Mean pM GLP-1R) [pM] | EC50 (GLP-1R (INS1e assay); tris-lipidated peptides, replicate n1, read-out: INS1e assay EC50 GLP-1R n1) [pM] | EC50 (GLP-1R (INS1e assay); tris-lipidated peptides, replicate n2, read-out: INS1e assay EC50 GLP-1R n2) [pM] |
| --- | --- | --- | --- | --- | --- | --- | --- | --- | --- | --- | --- | --- | --- |
| CC[C@H](C)[C@H](NC(=O)[C@H](Cc1ccccc1)NC(=O)[C@H](CCC(=O)O)NC(=O)[C@H](CCCCN)NC(=O)[C@H](C)NC(=O)[C@H](C)NC(=O)[C@H](CCC(N)=O)NC(=O)CNC(=O)[C@H](CCC(=O)O)NC(=O)[C@H](CC(C)C)NC(=O)[C@H](Cc1ccc(O)cc1)NC(=O)[C@H](CO)NC(=O)[C@H](CO)NC(=O)[C@@H](NC(=O)[C@H](CC(=O)O)NC(=O)[C@H](CO)NC(=O)[C@@H](NC(=O)[C@H](Cc1ccccc1)NC(=O)[C@@H](NC(=O)CNC(=O)[C@H](CCC(=O)O)NC(=O)C(C)(C)NC(=O)[C@@H](N)Cc1c[nH]cn1)[C@@H](C)O)[C@@H](C)O)C(C)C)C(=O)N[C@@H](C)C(=O)N[C@@H](Cc1c[nH]c2ccccc12)C(=O)N[C@@H](CC(C)C)C(=O)N[C@H](C(=O)N[C@@H](CCCCN)C(=O)NCC(=O)N[C@@H](CCCNC(=N)N)C(=O)N[C@@H](CCCCNC(=O)COCCOCCNC(=O)COCCOCCNC(=O)CC[C@H](NC(=O)CCCCCCCCCCCCCCCCC(=O)O)C(=O)O)C(N)=O)C(C)C [compound 6] | 0.0048 | ≥ 22 | ≥ 22 | ≥ 22 | ≥ 22 | 122 | 104 | 139 |  |  |  |  |  |
| CC[C@H](C)[C@H](NC(=O)[C@](C)(Cc1ccccc1)NC(=O)[C@H](CCC(=O)O)NC(=O)[C@](C)(CCCCN)NC(=O)[C@H](CCCCNC(=O)COCCOCCNC(=O)COCCOCCNC(=O)CC[C@H](NC(=O)CCCCCCCCCCCCCCCCC(=O)O)C(=O)O)NC(=O)[C@H](C)NC(=O)[C@H](CCC(=O)O)NC(=O)CNC(=O)[C@H](CCC(=O)O)NC(=O)[C@H](CC(C)C)NC(=O)[C@](C)(Cc1ccccc1)NC(=O)[C@H](CO)NC(=O)[C@](C)(CO)NC(=O)[C@@H](NC(=O)[C@H](CC(=O)O)NC(=O)[C@H](CO)NC(=O)[C@@H](NC(=O)[C@](C)(Cc1ccccc1)NC(=O)[C@H](CO)NC(=O)CNC(=O)[C@H](CCC(=O)O)NC(=O)C(C)(C)NC(=O)[C@@H](N)Cc1c[nH]cn1)[C@@H](C)O)C(C)C)C(=O)N[C@@H](C)C(=O)N[C@@](C)(Cc1ccccc1)C(=O)N[C@H](C(=O)N[C@H](C(=O)N[C@@](C)(CCCCN)C(=O)NCC(=O)NCC(N)=O)C(C)C)C(C)C [compound 110] (H-H[Aib]EGS[αMeF]TSDV[αMeS]S[αMeF]LEGEAK([AEEA-AEEA-γGlu-C18 diacid])[αMeK]E[αMeF]IA[αMeF]VV[αMeK]GG-NH2; N-terminus assumed) |  | ≥ 25 | ≥ 25 | ≥ 25 | ≥ 25 | 27400 | 31600 | 23100 |  |  |  |  |  |
| CC[C@H](C)[C@H](NC(=O)[C@](C)(Cc1ccccc1)NC(=O)[C@H](CCC(=O)O)NC(=O)[C@](C)(CCCCN)NC(=O)[C@H](C)NC(=O)[C@H](C)NC(=O)[C@H](CCC(=O)O)NC(=O)[C@H](CCCCNC(=O)COCCOCCNC(=O)COCCOCCNC(=O)CC[C@H](NC(=O)CCCCCCCCCCCCCCCCC(=O)O)C(=O)O)NC(=O)[C@H](CCC(=O)O)NC(=O)[C@H](CC(C)C)NC(=O)[C@](C)(Cc1ccccc1)NC(=O)[C@H](CO)NC(=O)[C@](C)(CO)NC(=O)[C@@H](NC(=O)[C@H](CC(=O)O)NC(=O)[C@H](CO)NC(=O)[C@@H](NC(=O)[C@](C)(Cc1ccccc1)NC(=O)[C@H](CO)NC(=O)CNC(=O)[C@H](CCC(=O)O)NC(=O)C(C)(C)NC(=O)[C@@H](N)Cc1c[nH]cn1)[C@@H](C)O)C(C)C)C(=O)N[C@@H](C)C(=O)N[C@@](C)(Cc1ccccc1)C(=O)N[C@H](C(=O)N[C@H](C(=O)N[C@@](C)(CCCCN)C(=O)NCC(=O)NCC(N)=O)C(C)C)C(C)C [compound 113] (H-H[Aib]EGS[αMeF]TSDV[αMeS]S[αMeF]LEK([AEEA-AEEA-γGlu-C18 diacid])EAA[αMeK]E[αMeF]IA[αMeF]VV[αMeK]GG-NH2; N-terminus assumed) |  | ≥ 25 | ≥ 24.9 | ≥ 25 | ≥ 24.9 | 1040 | 823 | 1260 |  |  |  |  |  |
| CC[C@H](C)[C@H](NC(=O)[C@](C)(Cc1ccccc1)NC(=O)[C@H](CCC(=O)O)NC(=O)[C@](C)(CCCCN)NC(=O)[C@H](C)NC(=O)[C@H](C)NC(=O)[C@H](CCC(=O)O)NC(=O)CNC(=O)[C@H](CCC(=O)O)NC(=O)[C@H](CC(C)C)NC(=O)[C@H](CCCCNC(=O)COCCOCCNC(=O)COCCOCCNC(=O)CC[C@H](NC(=O)CCCCCCCCCCCCCCCCC(=O)O)C(=O)O)NC(=O)[C@H](CO)NC(=O)[C@](C)(CO)NC(=O)[C@@H](NC(=O)[C@H](CC(=O)O)NC(=O)[C@H](CO)NC(=O)[C@@H](NC(=O)[C@](C)(Cc1ccccc1)NC(=O)[C@H](CO)NC(=O)CNC(=O)[C@H](CCC(=O)O)NC(=O)C(C)(C)NC(=O)[C@@H](N)Cc1c[nH]cn1)[C@@H](C)O)C(C)C)C(=O)N[C@@H](C)C(=O)N[C@@](C)(Cc1ccccc1)C(=O)N[C@H](C(=O)N[C@H](C(=O)N[C@@](C)(CCCCN)C(=O)NCC(=O)NCC(N)=O)C(C)C)C(C)C [compound 116] |  | ≥ 26 | ≥ 25.6 | ≥ 26 | ≥ 25.6 | 1110 | 1610 | 610 |  |  |  |  |  |
| CCCCCCCCCCCC(=O)N[C@@H](CCC(=O)NCCOCCOCC(=O)NCCOCCOCC(=O)NCCCC[C@H](NC(=O)CNC(=O)[C@H](CCC(=O)O)NC(=O)[C@H](CC(C)C)NC(=O)[C@H](CCCCNC(=O)COCCOCCNC(=O)COCCOCCNC(=O)CC[C@H](NC(=O)CCCCCCCCCCC)C(=O)O)NC(=O)[C@H](CO)NC(=O)[C@](C)(CO)NC(=O)[C@@H](NC(=O)[C@H](CC(=O)O)NC(=O)[C@H](CO)NC(=O)[C@@H](NC(=O)[C@](C)(Cc1ccccc1)NC(=O)[C@H](CO)NC(=O)CNC(=O)[C@H](CCC(=O)O)NC(=O)C(C)(C)NC(=O)[C@@H](N)Cc1c[nH]cn1)[C@@H](C)O)C(C)C)C(=O)N[C@@H](C)C(=O)N[C@@H](C)C(=O)N[C@@](C)(CCCCN)C(=O)N[C@@H](CCC(=O)O)C(=O)N[C@@H](Cc1ccccc1)C(=O)N[C@H](C(=O)N[C@@H](C)C(=O)N[C@@H](Cc1ccccc1)C(=O)N[C@@H](CCCCNC(=O)COCCOCCNC(=O)COCCOCCNC(=O)CC[C@H](NC(=O)CCCCCCCCCCC)C(=O)O)C(=O)N[C@H](C(=O)N[C@@H](CCC(=O)O)C(=O)NCC(=O)NCC(N)=O)C(C)C)[C@@H](C)CC)C(=O)O [compound 480] (H-H[Aib]EGS[αMeF]TSDV[αMeS]SK([AEEA-AEEA-γGlu-Lauroyl])LEGK([AEEA-AEEA-γGlu-Lauroyl])AA[αMeK]EFIAFK([AEEA-AEEA-γGlu-Lauroyl])VEGG-NH2) |  |  |  |  |  |  |  |  | 20 | 20 | 6530 | 9370 | 3690 |
